Consider three molecules from patent publication US20050049278A1, “Benzo[1,3]dioxole compounds, pharmaceutical compositions thereof, and processes of making and using the same” (priority 2003, published 2005).

Like-named read-outs stand apart in the source and are kept apart here. A value given as a limit tells only on which side of the number the result lay.

Experiment [1] deals with HT29 (colorectal adenocarcinoma). Kind of experiment: Cell viability (cell proliferation assay), HT29. The note with it: Homo sapiens, HT-29, 48 to 72 hr exposure. Format: cell-based. Here is the method: (§1) HEK293 cells were seeded into each well of a 96-well plate (5000 cells/well) and incubated overnight to allow the cells to attach. The culture media was removed and replaced with 100 μl of phenol red-free media containing the compounds 5a, 5a,b, and 9a at various concentrations. The cells were allowed to grow in the presence of the compounds for 48 hrs. At the end of the treatment, 20 μl of CellTiter 96 Aqueous One Solution reagent was added directly into each well, and the cells were incubated at 37° C. for 2 hrs. This reagent converts to a form that absorbs light at 490 nm by living cells. Thus, absorbance at 490 nm is proportional to the number of viable cells. The 490 nm absorbance was measured on a BioRad plate reader. Control wells containing no cells were included in this assay to correct for background absorbance.
(§2) The effect of compound 9a on the viability of cancer cell lines as well as dividing and non-dividing mouse Swiss3T3 cells was studied.
(§3) In particular, the cell proliferation assay, as described in Example 15, was used to test the effect of a 48 to 72 hr exposure of these cell lines to compound 9a at various concentrations.

The test system of experiment [2] is Swiss 3T3 dividing fibroblast. Description: Cell viability (cell proliferation assay), dividing Swiss 3T3. In kind it is cell-based. Conditions: Mus musculus, 48 to 72 hr exposure. Here is the method:
as §1, §2, §3

In experiment [3] the test system is OVCAR-4 (ovarian adenocarcinoma). Description: Cell viability (cell proliferation assay), OVCAR-4. Conditions: Homo sapiens, 48 to 72 hr exposure. In kind it is cell-based. As to the method: as §1, §2, §3
The test system of experiment [4] is A549 (non-small cell lung carcinoma). Description: Cell viability (cell proliferation assay), A549. In kind it is cell-based. Conditions: Homo sapiens, 48 to 72 hr exposure. As to the method:
as §1, §2, §3

Experiment [5] has as its system HEK293 cells. Kind of experiment: Cell cycle analysis by FACS of HEK293 cells. In kind it is cell-based. The note with it: for Percent of Cells in G1 / Percent of Cells in G2/M / Percent of Cells in S: treated 16 to 24 hrs. As to the method: Fluorescence-activated cell sorting (FACS) analysis was used to examine the cell cycle state when the cells were incubated with compounds of formula (I) as well as several control compounds, including DMSO, noscapine (a known G2/M inhibitor), and colchicine (a known G2/M inhibitor).
In particular, HEK293 cells were cultured in DMEM media (Celigro) supplemented with 10% Fetal Bovine Serum (Tissue Culture Biologicals) and 1× Penicillin/Streptomycin/Glutamine (Gibco). The cells were grown at 37° C. with 5% CO2, plated in six-well plates at 2.5×10^6 cells/well, and treated for 16 to 24 hrs with the compounds at the concentrations shown in Table 1, below. The cells were then triturated off the bottom of the wells, washed 1× with PBS, then fixed with 70% ethanol, and stored at 4° C. before staining and FACS analysis.
The DNA content of cells was determined using a FacsVantage SE flow cytometry system (Becton Dickinson, San Jose, Calif.) and a Cellular DNA Flow Cytometric Analysis Kit (Roche Applied Science, Indianapolis, Ind.). Cell cycle analysis was performed using Cylchred 1.0.2 software.

In experiment [6] the test system is HOP-18 (non-small cell lung carcinoma). Description: Cell viability (cell proliferation assay), HOP-18. Format: cell-based. The note with it: Homo sapiens, 48 to 72 hr exposure. Here is the method:
as §1, §2, §3

Experiment [7] has as its system NCl/ADR (breast adenocarcinoma). Description: Cell viability (cell proliferation assay), NCl/ADR. Format: cell-based. Conditions: 48 to 72 hr exposure. Here is the method:
as §1, §2, §3

Experiment [8] concerns PC3 (prostate adenocarcinoma). Kind of experiment: Cell viability (cell proliferation assay), PC3. Conditions: 48 to 72 hr exposure. Format: cell-based. Here is the method: as §1, §2, §3
Experiment [9] concerns HCT15 (colorectal adenocarcinoma). Kind of experiment: Cell viability (cell proliferation assay), HCT15. Format: cell-based. Conditions: Homo sapiens, HCT-15, 48 to 72 hr exposure. Here is the method: as §1, §2, §3
For experiment [10], the system named is HTS-tubulin (90% tubulin plus 10% microtubule associated proteins). Kind of experiment: Microtubule polymerization assay (turbidity at 340 nm). Format: biochemical. Conditions: absorbance at 340 nm, 30 minutes, 37° C., FIG. 3. Here is the method:
Microtubule polymerization assays were performed to determine if compounds, such as compound 9a, cause G2/M cell cycle arrest by affecting microtubule dynamics. A microtubule polymerization assay was performed that takes advantage of the observation that there is an increase in turbidity that can be measured at 340 nm as tubulin heterodimers polymerize to form microtubules. In brief, HTS-tubulin (90% tubulin plus 10% microtubule associated proteins; Cytoskeleton Inc., Denver, Colo.) was resuspended in G-PEM buffer (80 mM Pipes, pH 6.9; 2 mM MgCl2; 0.5 mM EDTA; 1 mM GTP) to 10 mg/ml. This suspension was clarified by centrifugation for 10 min. at 225,000×g. The supernatant was then diluted with G-PEM buffer to 2 mg/ml and 100 μl of this solution was added to the appropriate number of ½-area wells in a 96-well format (Corning). Each compound (10 μl of a 10× final concentration in 10% DMSO) was added to the wells in duplicate and immediately put into a pre-warmed (37° C.) Spectromax 190 plate reader. The absorbance was read at 340 nm immediately (time=0) and every minute thereafter for 30 minutes.
The tubulin mix was incubated in the presence of paclitaxel (a microtubule stabilizing agent), nocodazole (a microtubule destabilizing agent), vehicle control (DMSO), or varying concentrations of compound 9a (FIG. 3).

The next experiment concerns H4 (glioma). Kind of experiment: Cell viability (cell proliferation assay), H4. Format: cell-based. Conditions: 48 to 72 hr exposure. As to the method:
as §1, §2, §3

For experiment [11], the system named is SW480 (colorectal adenocarcinoma). Kind of experiment: Cell viability (cell proliferation assay), SW480. In kind it is cell-based. Conditions: Homo sapiens, 48 to 72 hr exposure. As to the method: as §1, §2, §3
Another experiment has as its system U937 (lymphoma). Kind of experiment: Cell viability (cell proliferation assay), U937. The note with it: Homo sapiens, U-937, 48 to 72 hr exposure. Format: cell-based. As to the method: as §1, §2, §3
Experiment [12] has as its system HeLa (cervical adenocarcinoma). Description: Cell viability (cell proliferation assay), HeLa. Format: cell-based. Conditions: Homo sapiens, 48 to 72 hr exposure. Here is the method: as §1, §2, §3
The next experiment concerns HL-60 (leukemia). Kind of experiment: Cell viability (cell proliferation assay), HL-60. Format: cell-based. Conditions: Homo sapiens, 48 to 72 hr exposure. Here is the method:
as §1, §2, §3

The subject of experiment [13] is HEK293 cells. Description: HEK293 cell viability, CellTiter 96 Aqueous One Solution Cell Proliferation assay. In kind it is cell-based. Conditions: Homo sapiens, HEK293, 48 h, read-out: EC50. As to the method:
as §1, with “The effect of various doses of compounds 5a, 5a,b, and 9a on the viability of HEK293 cells was examined using the CellTiter 96 Aqueous One Solution Cell Proliferation assay (Promega). The HEK293 cells were cultured in DMEM media (Cellgro) or phenol red-free DMEM (Gibco) supplemented with 10% Fetal Bovine Serum (Tissue Culture Biologicals) and 1× Penicillin/Streptomycin/Glutamine (Gibco). The cells were grown at 37° C. with 5% CO2. HEK293” for “HEK293”

Experiment [14] has as its system Swiss 3T3 non-dividing fibroblast. Kind of experiment: Cell viability (cell proliferation assay), non-dividing Swiss 3T3. Format: cell-based, mouse. Here is the method:
as §1, §2, §3

A further experiment addresses T1, topoisomerase II (Homo sapiens, UniProt P11388).
T1 construct: purchased Topogen Inc
Description: Topoisomerase II assay (supercoiled pBluescript DNA, agarose gel). Conditions: in vitro, FIG. 2. Format: biochemical. As to the method: (§4) Analysis of topoisomerase activity was performed in 20 μl reactions with either topoisomerase I reaction buffer (10 mM TRIS-HCl, pH 7.5; 100 mM NaCl; 1 mM 2-mercaptoethanol) or topoisomerase II reaction buffer (50 mM Tris-HCl, pH 8; 120 mM KCl; 10 mM MgCl2; 0.5 mM dithiothreitol; 0.5 mM ATP; 30 μg BSA/ml) containing 125 ng supercoiled pBluescript DNA and either 2 U topoisomerase I (Sigma-Aldrich) or topoisomerase II (Topogen Inc.). After reaction at 37° C. for 20 minutes, the reactions were terminated through the addition of sodium dodecyl sulfate to 1% w/v and heating to 65° C. for 10 minutes. Proteinase K was then added to 10 μg/ml and digestion was allowed to proceed at 37° C. for 20 minutes before electrophoresis of the DNA in 0.8% agarose gels containing 0.5 μg/ml ethidium bromide for 18 hours at 75V in 0.5×TBE buffer. DNA was then visualized using a UV-transilluminator and the image was captured using a BioRad CCD camera and gel documentation system.

Another experiment has as its target T2, topoisomerase I (Homo sapiens, UniProt P11387).
T2 construct: purchased Sigma-Aldrich
T2 sequence (P11387 1-765): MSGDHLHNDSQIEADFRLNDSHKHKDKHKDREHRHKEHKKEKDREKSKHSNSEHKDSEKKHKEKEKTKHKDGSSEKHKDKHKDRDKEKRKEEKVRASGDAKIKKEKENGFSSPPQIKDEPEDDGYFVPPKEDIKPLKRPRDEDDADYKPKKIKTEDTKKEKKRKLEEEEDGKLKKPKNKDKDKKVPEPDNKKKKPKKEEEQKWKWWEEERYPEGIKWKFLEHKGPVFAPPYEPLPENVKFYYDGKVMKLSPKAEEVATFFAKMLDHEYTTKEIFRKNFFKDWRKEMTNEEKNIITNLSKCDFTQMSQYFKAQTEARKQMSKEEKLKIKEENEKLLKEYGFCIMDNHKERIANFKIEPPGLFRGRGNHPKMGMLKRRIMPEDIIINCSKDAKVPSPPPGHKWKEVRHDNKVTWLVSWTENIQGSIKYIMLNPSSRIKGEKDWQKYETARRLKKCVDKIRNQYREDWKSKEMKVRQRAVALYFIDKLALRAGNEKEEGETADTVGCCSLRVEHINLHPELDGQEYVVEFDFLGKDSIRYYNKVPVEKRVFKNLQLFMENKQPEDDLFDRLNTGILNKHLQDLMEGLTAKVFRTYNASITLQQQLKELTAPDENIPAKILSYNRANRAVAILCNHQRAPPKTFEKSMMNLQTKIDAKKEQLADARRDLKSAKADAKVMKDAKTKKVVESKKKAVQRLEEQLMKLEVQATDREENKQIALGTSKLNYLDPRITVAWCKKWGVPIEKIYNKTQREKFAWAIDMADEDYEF
Kind of experiment: Topoisomerase I assay (supercoiled pBluescript DNA, agarose gel). Format: biochemical. The note with it: in vitro, FIG. 2. Here is the method: as §4, with “The ability of compounds that cause S-phase cell cycle arrest to inhibit topoisomerase I and topoisomerase II was examined. Analysis” for “Analysis”

T1 sequence (P11388 whole entry): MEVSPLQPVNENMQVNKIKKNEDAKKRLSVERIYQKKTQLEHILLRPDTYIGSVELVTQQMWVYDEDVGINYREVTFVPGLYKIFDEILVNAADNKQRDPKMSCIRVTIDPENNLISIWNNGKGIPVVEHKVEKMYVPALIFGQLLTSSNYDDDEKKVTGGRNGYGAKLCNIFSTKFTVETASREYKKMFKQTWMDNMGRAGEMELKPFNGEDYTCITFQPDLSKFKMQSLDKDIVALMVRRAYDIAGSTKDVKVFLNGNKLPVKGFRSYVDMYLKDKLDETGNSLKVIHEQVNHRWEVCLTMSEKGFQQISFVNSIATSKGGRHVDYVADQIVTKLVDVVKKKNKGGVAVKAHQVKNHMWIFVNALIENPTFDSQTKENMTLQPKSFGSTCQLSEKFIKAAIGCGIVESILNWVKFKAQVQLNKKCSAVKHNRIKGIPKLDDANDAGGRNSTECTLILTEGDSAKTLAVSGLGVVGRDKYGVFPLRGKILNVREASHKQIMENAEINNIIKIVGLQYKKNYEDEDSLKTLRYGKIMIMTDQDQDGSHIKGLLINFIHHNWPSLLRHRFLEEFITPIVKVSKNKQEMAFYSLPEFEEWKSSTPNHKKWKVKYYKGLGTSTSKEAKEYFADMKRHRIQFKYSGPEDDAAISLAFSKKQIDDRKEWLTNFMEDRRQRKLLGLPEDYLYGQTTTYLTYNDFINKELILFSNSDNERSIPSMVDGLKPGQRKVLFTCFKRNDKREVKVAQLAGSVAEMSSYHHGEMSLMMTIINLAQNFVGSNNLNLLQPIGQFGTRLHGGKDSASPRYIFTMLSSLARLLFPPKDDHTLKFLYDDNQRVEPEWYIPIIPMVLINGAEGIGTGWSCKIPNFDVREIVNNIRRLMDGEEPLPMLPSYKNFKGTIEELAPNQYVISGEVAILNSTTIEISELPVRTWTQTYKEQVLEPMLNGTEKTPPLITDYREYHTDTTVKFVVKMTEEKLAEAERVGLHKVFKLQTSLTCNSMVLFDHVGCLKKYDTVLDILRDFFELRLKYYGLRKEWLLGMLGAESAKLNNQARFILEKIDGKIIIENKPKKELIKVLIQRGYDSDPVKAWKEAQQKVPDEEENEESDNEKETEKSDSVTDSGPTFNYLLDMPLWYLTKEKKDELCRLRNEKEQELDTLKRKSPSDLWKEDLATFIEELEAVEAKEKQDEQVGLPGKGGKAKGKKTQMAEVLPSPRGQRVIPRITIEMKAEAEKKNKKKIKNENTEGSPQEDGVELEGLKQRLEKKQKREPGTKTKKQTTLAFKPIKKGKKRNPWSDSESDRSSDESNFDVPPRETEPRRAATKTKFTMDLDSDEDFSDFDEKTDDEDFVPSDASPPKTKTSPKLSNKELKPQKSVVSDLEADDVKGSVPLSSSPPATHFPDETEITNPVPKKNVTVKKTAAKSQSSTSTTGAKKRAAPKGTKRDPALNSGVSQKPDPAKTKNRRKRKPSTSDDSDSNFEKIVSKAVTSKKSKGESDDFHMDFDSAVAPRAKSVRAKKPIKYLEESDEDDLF

In the case of `COc1ccc2c(c1N)C(=O)O[C@@H]2[C@H]1c2c(cc3c(c2OC)OCO3)CCN1C` [Compound 9a, 7-amino-6-methoxy-3-(4-methoxy-6-methyl-5,6,7,8-tetrahydro-[1,3]dioxolo[4,5-g]isoquinolin-5-yl)-3H-isobenzofuran-1-one], the EC50 in experiment [1] is less than 100 nM; in [2], less than 100 nM; in [3], less than 100 nM; in experiment [4], less than 100 nM; in [6] it was less than 100 nM; in experiment [7] it was less than 50 nM. Moreover, the EC50 in [8] is less than 100 nM; in [9], less than 100 nM; in the experiment with H4 (glioma) it was less than 50 nM; in experiment [11] it was less than 100 nM; with U937 (lymphoma), less than 50 nM; in [12], less than 50 nM. Also, the EC50 in the experiment on HL-60 (leukemia) is less than 50 nM; with HEK293 cells [13] it was less than 50 nM; in the experiment with HEK293 cells [13] (text summary), less than 1000 nM; in experiment [14] (Mus musculus, Swiss 3T3 non-dividing fibroblast, 48 to 72 hr exposure), more than 50000 nM. The “Percent of Cells in G1” value in the experiment on HEK293 cells [5] (HEK293, 0.1 μM) is 1%. In the experiment with HEK293 cells [5] (HEK293, 0.1 μM), the “Percent of Cells in G2/M” value is recorded as 92.1%. Moreover, the “Percent of Cells in S” value in the experiment on HEK293 cells [5] (HEK293, 0.1 μM) amounted to 6.9%. In addition, in the experiment on HEK293 cells [5] (HEK293, G2/M accumulation), the “concentration at which activity was observed” value is 0.1 µM. The “accumulation of cells in G2/M” value in the experiment with HEK293 cells [5] (HEK293, concentrations as in Table 1) is approximately 90%. For the same molecule, in experiment [10], the “effect on microtubule polymerization” value was “dose-dependent decrease of microtubule polymerization”. In addition, the “effect on viability” value in [14] (non-dividing Swiss 3T3 fibroblasts, even at 50 μM) is “no effect was observed”.

On to `COc1ccc2c(c1OC)C(=O)O[C@@H]2[C@H]1c2c(cc3c(c2OC)OCO3)CCN1C` [Noscapine, noscapine, reference compound], for which, in the experiment with HEK293 cells [5] (HEK293, 50 μM), the “Percent of Cells in G1” value is recorded as 19.2%, the “Percent of Cells in G2/M” value came to 49.6% and the “Percent of Cells in S” value stood at 31.1%. For the same molecule, on topoisomerase II, the “inhibition of topoisomerase II activity” value is given as “neither topotecan nor noscapine acts as inhibitors”. For the same molecule, at topoisomerase I, the “inhibition of topoisomerase I activity” value is given as “neither etoposide nor noscapine inhibited”. Moreover, in the experiment with HEK293 cells [13], the EC50 is approximately 10000 nM.

`CC[C@@]1(O)C(=O)OCc2c1cc1n(c2=O)Cc2cc3c(CN(C)C)c(O)ccc3nc2-1` [topotecan]: the “inhibition of topoisomerase II activity” value against topoisomerase II is “neither topotecan nor noscapine acts as inhibitors”. The “concentrations at which topoisomerase I activity was inhibited” value at topoisomerase I was “below 3 μM”.
